Experimental data reported in US20210261513A1, “4-SUBSTITUTED PHENYL-1,3,5-TRIAZINE DERIVATIVES AS MODULATORS OF TRK RECEPTORS” (ALZECURE PHARMA AB, priority 2018, published 2021).

Legend:
[1] = molecular target: T1, TrkA (Homo sapiens, UniProt P04629); assay: cell-based Enzyme Fragment Complementation (EFC) assay, U2OS cells over-expressing TrkA; conditions: compound pre-mixed with ligand (NGF), final ligand concentration 10 ng/mL, 3 hours at room temperature, read-out: TrkA potency expressed as EC50
T1 construct: expressed in transfected cells; host or cells: U2OS
T1 sequence (P04629 33-796): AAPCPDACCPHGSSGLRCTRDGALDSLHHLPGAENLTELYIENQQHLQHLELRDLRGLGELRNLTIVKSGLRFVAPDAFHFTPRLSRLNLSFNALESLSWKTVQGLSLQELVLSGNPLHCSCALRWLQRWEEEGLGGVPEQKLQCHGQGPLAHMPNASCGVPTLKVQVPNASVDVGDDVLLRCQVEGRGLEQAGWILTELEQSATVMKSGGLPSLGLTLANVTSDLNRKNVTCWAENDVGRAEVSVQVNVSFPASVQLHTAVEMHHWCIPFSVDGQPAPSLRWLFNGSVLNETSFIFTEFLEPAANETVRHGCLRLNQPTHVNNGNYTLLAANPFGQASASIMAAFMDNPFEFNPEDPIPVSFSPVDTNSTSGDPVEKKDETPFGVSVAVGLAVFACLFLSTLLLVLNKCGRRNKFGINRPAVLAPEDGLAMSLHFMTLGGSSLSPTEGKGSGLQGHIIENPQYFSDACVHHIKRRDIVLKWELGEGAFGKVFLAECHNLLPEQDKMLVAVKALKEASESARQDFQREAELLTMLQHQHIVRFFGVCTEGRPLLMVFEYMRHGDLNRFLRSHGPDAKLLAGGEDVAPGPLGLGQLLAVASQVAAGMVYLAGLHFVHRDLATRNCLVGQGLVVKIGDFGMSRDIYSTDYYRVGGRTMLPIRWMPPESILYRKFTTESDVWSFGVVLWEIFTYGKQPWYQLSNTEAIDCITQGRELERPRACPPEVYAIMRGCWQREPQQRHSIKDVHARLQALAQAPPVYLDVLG
Excerpt: (§1) A high throughput cell-based screen has been used to identify positive modulators of TrkA and TrkB. The screen involves the use of cell-based assay overexpressing TrkA or TrkB. The purpose of the assay is to identify compounds that modulate neurotrophin signalling (Forsell et al 2012). The assay can be used in inhibitor mode using a high concentration of ligand, in modulator mode using an intermediate concentration and in agonist mode using a low concentration of ligand.
(§2) The assay uses Enzyme Fragment Complementation (EFC) technique, which is a proximity-based assay. Briefly, cells used in this assay over-express two fusion proteins, i.e. the receptor, which can be either of TrkA or TrkB, fused to a small peptide of beta-galactosidase and an adaptor protein, i.e. SHC1 (or any other Trk-adaptor protein) fused to the major part of beta-galactosidase. […] The proximity between the small activating peptide on the receptor and the major part of beta-galactosidase on the adaptor protein leads to an active beta-galactosidase enzyme. The activation of the receptor is quantified by measuring the amount of active beta-galactosidase by its conversion of a non-luminescent substrate into a luminescent product.
(§3) U2OS-cells, over-expressing TrkA or TrkB, are plated in 96- or 384-well plates and incubated overnight. On the following day, test compound was pre-mixed with ligand (NGF) and the ligand-compound mixture is then added to the cells to yield a final ligand concentration of 10 ng/mL. After 3 hours of incubation at room temperature, the incubation is stopped by the addition of a beta-galactosidase substrate mixture containing detergents. The substrate mixture is incubated for 60 minutes at ambient temperature. The luminescence is thereafter read by the use of a plate reader.

[2] = molecular target: T2, TrkB (Homo sapiens, UniProt Q16620); assay: cell-based Enzyme Fragment Complementation (EFC) assay, U2OS cells over-expressing TrkB; conditions: compound pre-mixed with ligand (NGF), final ligand concentration 10 ng/mL, 3 hours at room temperature, read-out: TrkB potency expressed as EC50
T2 construct: expressed in transfected cells; host or cells: U2OS
T2 sequence (Q16620 32-822): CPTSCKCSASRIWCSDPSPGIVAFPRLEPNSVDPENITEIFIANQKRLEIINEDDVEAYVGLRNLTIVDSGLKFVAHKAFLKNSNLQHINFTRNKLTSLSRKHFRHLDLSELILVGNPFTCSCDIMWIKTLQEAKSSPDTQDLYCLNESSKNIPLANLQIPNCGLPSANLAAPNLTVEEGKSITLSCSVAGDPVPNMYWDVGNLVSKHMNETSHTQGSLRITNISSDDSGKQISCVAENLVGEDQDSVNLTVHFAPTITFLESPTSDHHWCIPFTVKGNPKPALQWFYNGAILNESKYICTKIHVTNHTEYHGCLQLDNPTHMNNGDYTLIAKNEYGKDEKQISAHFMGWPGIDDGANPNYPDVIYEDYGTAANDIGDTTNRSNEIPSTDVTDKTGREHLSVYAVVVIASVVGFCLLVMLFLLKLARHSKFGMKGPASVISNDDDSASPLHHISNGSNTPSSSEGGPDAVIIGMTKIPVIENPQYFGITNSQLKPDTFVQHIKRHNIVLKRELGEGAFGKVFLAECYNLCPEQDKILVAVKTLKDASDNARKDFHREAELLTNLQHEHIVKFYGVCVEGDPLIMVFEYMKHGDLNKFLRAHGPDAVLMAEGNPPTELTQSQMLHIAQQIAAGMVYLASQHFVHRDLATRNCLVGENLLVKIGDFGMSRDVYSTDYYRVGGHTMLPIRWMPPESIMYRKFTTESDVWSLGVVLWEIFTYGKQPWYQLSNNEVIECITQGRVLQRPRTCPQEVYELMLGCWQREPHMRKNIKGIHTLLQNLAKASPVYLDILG
Excerpt: as §1, §2, §3

[3] = test system: ephrin type-B receptor 2 (EphB2); conditions: Suzuki et al., FEBS Open Bio 2016; cited from earlier work

Row | Structure (SMILES) | EC50 [1] [nM] | EC50 [2] [nM] | inhibits the binding of p-amyloid oligomers to ephrin type-B receptor 2 (EphB2) [3] [%]
1 | Cc1cc(-n2c(=O)[nH]c(=O)n(-c3ccccc3)c2=O)ccc1-n1cccn1 [Example 8, 1-[3-methyl-4-(1H-pyrazol-1-yl)phenyl]-3-phenyl-1,3,5-triazinane-2,4,6-trione] | 5560 | 6220 | 
2 | Cc1cc(-n2c(=O)[nH]c(=O)n(-c3ccccc3)c2=O)ccc1C(C)C [Example 3, 1-[3-methyl-4-(propan-2-yl)phenyl]-3-phenyl-1,3,5-triazinane-2,4,6-trione] | 7050 | 7900 | 
3 | Cc1cccc(-n2c(=O)[nH]c(=O)n(-c3ccc(-n4cccc4)c(C)c3)c2=O)c1 [Example 11, 1-[3-methyl-4-(1H-pyrrol-1-yl)phenyl]-3-(3-methylphenyl)-1,3,5-triazinane-2,4,6-trione] | 100 | 70 | 
4 | Cc1cc(-n2c(=O)[nH]c(=O)n(C)c2=O)ccc1Oc1ccc(SC(F)(F)F)cc1 [toltrazuril, 1-methyl-3-(3-methyl-4-{4-[(trifluoromethyl)sulfanyl]phenoxy}phenyl)-1,3,5-triazinane-2,4,6-trione] |  |  | 30
5 | Cc1cc(-n2c(=O)[nH]c(=O)n(-c3ccccc3)c2=O)ccc1N1CCCCC1 [Example 2, 1-[3-methyl-4-(piperidin-1-yl)phenyl]-3-phenyl-1,3,5-triazinane-2,4,6-trione] | 1050 | 1270 | 
6 | Cc1ccc(-c2ccc(-n3c(=O)[nH]c(=O)n(-c4ccccc4)c3=O)cc2C)o1 [Example 4, 1-[3-methyl-4-(5-methylfuran-2-yl)phenyl]-3-phenyl-1,3,5-triazinane-2,4,6-trione] | 6770 | 2080 | 
7 | Cc1cc(-n2c(=O)[nH]c(=O)n(-c3ccccc3)c2=O)ccc1-c1ccccc1 [Example 1, 1-{2-methyl-[1,1′-biphenyl]-4-yl}-3-phenyl-1,3,5-triazinane-2,4,6-trione] | 180 | 90 | 

Now from value to compound, other results behind:

Row | EC50 [1] [nM] | EC50 [2] [nM] | Structure (SMILES) | inhibits the binding of p-amyloid oligomers to ephrin type-B receptor 2 (EphB2) [3] [%]
8 | 7200 | 3000 | CCc1ccc(-c2ccc(-n3c(=O)[nH]c(=O)n(C)c3=O)cc2C)cc1 [Example 5, 1-{4′-ethyl-2-methyl-[1,1′-biphenyl]-4-yl}-3-methyl-1,3,5-triazinane-2,4,6-trione] | 
9 | 240 | 250 | Cc1cc(-n2c(=O)[nH]c(=O)n(-c3ccccc3)c2=O)ccc1-n1cccc1 [Example 6, 1-[3-methyl-4-(1H-pyrrol-1-yl)phenyl]-3-phenyl-1,3,5-triazinane-2,4,6-trione] | 
10 | 6710 | 20600 | Cc1cc(-n2c(=O)[nH]c(=O)n(C)c2=O)ccc1-c1ccccc1 [Example 7, 1-methyl-3-{2-methyl-[1,1′-biphenyl]-4-yl}-1,3,5-triazinane-2,4,6-trione] | 
